# Data published in publication PMC11872507, “Lasso peptides sviceucin and siamycin I exhibit anti-virulence activity and restore vancomycin effectiveness in vancomycin-resistant pathogens” (iScience, 2025).
# Columns and labels:
# V583 vanSB^S402I = assay: Vancomycin MIC, microdilution; assay type: cell-based; details: Enterococcus faecalis; vancomycin alone (control)
# S. aureus T-SAR12 VRSA.A = assay: microbe, parasite or virus in culture; assay type: cell-based, Staphylococcus aureus; details: Staphylococcus aureus, VRSA, read-out: Vancomycin MIC
# Method: (§1) The MIC of vancomycin was determined by the microdilution method described in the guidelines of the European Committee on Antimicrobial Susceptibility Testing (EUCAST 2024, v14.0 Breakpoint Tables).[58] For enterococci, GM17 medium was used instead of CAMH medium since enterococci cannot degrade starch, the main carbohydrate of MH medium. 2-fold serial dilutions of the tested antibiotic were performed to obtain concentrations ranging from 0.5 to 512 μg/mL. LP were then added to the wells at the desired concentration. The medium was inoculated with a final inoculum of 5 × 10^5 CFU/mL. The MIC is the lowest concentration that prevents visible in vitro growth.
# S. aureus T-SAR12 VRSA.B = assay: microbe, parasite or virus in culture; assay type: cell-based, Staphylococcus aureus; details: Staphylococcus aureus, VRSA, read-out: Vancomycin MIC
# Method: as §1
# Svic1 ΔvanB = assay: Vancomycin MIC, microdilution; assay type: cell-based; details: Enterococcus faecalis; vancomycin alone (control)
# E. faecalis HIP11704 = assay: microbe, parasite or virus in culture; assay type: cell-based, Enterococcus faecalis; details: Enterococcus faecalis, HIP11704, read-out: Vancomycin MIC
# E. faecalis V583 = assay: Vancomycin MIC with nanoemulsions; assay type: cell-based, Enterococcus faecalis; details: with blank NEs
# Method: The formulation of the nanoemulsions was based on the spontaneous nanoemulsification method previously described by Séguy et al.[41] and transposed to lasso peptides. The present nanoemulsions were developed from anhydrous mixtures composed of excipients already described in the European Pharmacopeia (World Health Organization, 2018) and already proven to be hemocompatible on human whole blood. Monodisperse nanoemulsions could be formulated at a drug payload of 400 μg/mL for siamycin I. At these concentrations, the drug added to the anhydrous mixture during the formulation process appeared to be completely dissolved. After the addition of the aqueous phase, a homogeneous colloidal suspension was observed. The nanoemulsions were characterized in terms of granulometric and physicochemical properties (Table S6). The hydrodynamic diameter, zeta potential, and PDI were not changed relative to the blank nanoemulsions, remaining lower than 0.25, indicating the presence of a monodispersed population.
# E. faecium 1 230 933 = assay: microbe, parasite or virus in culture; assay type: cell-based, Enterococcus faecium; details: Enterococcus faecium, 1230933, read-out: Vancomycin MIC
# V583 ΔvanSB = assay: Vancomycin MIC, microdilution; assay type: cell-based; details: Enterococcus faecalis; vancomycin alone (control)
# Method: The MIC of vancomycin was determined by the microdilution method described in the guidelines of the European Committee on Antimicrobial Susceptibility Testing (EUCAST 2024, v14.0 Breakpoint Tables).[58] […] 2-fold serial dilutions of the tested antibiotic were performed to obtain concentrations ranging from 0.5 to 512 μg/mL. LP were then added to the wells at the desired concentration. The medium was inoculated with a final inoculum of 5 × 10^5 CFU/mL. The MIC is the lowest concentration that prevents visible in vitro growth.
smiles,measurement,setting,value
CN[C@H](CC(C)C)C(=O)N[C@H]1C(=O)N[C@@H](CC(N)=O)C(=O)N[C@H]2C(=O)N[C@H]3C(=O)N[C@H](C(=O)N[C@H](C(=O)O)c4cc(O)cc(O)c4-c4cc3ccc4O)[C@H](O)c3ccc(c(Cl)c3)Oc3cc2cc(c3O[C@@H]2O[C@H](CO)[C@@H](O)[C@H](O)[C@H]2O[C@H]2C[C@](C)(N)[C@H](O)[C@H](C)O2)Oc2ccc(cc2Cl)[C@H]1O [Vancomycin],MIC,V583 vanSB^S402I,128 µg/mL
same,MIC,S. aureus T-SAR12 VRSA.A,> 512 µg/mL
same,MIC,S. aureus T-SAR12 VRSA.B,64 µg/mL
same,MIC,Svic1 ΔvanB,2 µg/mL
same,MIC,E. faecalis HIP11704,1020 µg/mL
same,Vancomycin MIC,E. faecalis V583,32
same,MIC,E. faecium 1 230 933,512 µg/mL
same,MIC,V583 ΔvanSB,2 µg/mL
